Test results published in US20100311606A1, “PHARMACOGENOMIC CELL LINE PANEL AND USE THEREOF” (priority 2007, published 2010).

Columns and labels:
MDA-MB-231 cells = assay: Caspase-3/7 activity assay in siRNA-transfected cells; assay type: cell-based, human; conditions: increasing drug concentrations, 72 hours, compared with negative siRNA
Procedure: (§1) Error bars represent SEM values for 3 independent experiments.
(§2) Caspase-3/7 activity assay: The caspase-3 activity of siRNA-transfected cells was detected according to the manufacture's protocol using CASPASE-GLO® 3/7 Assay kit (Promega BioSciences, San Luis Obispo, Calif.). Once a proluminescent caspase-3/7 substrate containing the tetrapeptide sequence DEVD is cleaved by caspase-3/7, it will release a substrate for luciferase (amino-luciferin). […] CASPASE-GLO® 3/7 Reagent (100 μl; an equal volume to the cell suspension) was added and incubated for 1 hour at room temperature, followed by detection of luminescence with a luminometer. Wells containing culture medium alone were used as controls.
(§3) One possibility would involve the blockade of apoptosis signaling pathways as a result of FKBP5 knock-down. FKBP5 has been reported to be involved in apoptosis through a calcineurin-dependent pathway (Giraudier et al. Blood (2002) 100:2932-2940). To test that hypothesis, caspase-3/7 activity assays were performed to determine whether alterations in FKBP5 expression might influence apoptotic signaling. […] Specific mechanisms by which FKBP5 might influence apoptosis will require future clarification.

SU86 cells = assay: as above; assay type: cell-based, human; conditions: increasing drug concentrations, 72 hours, compared with negative siRNA
Procedure: as §1, §2, §3

[1] = system: SU86 pancreatic cancer cells; assay: Cytotoxicity (MTS) after siRNA knockdown of NT5C3 or FKBP5; assay type: cell-based, human; conditions: for Change of drug sensitivity after FKBP5 siRNA: FKBP5 specific siRNA vs negative siRNA
Procedure: (§4) Specifically, once cells grew at an exponential phase, 90 μl of cell suspension were placed into a 96 well flat plate (Corning, Corning, N.Y.) at a density of 5×10^4 cells/well. […] Experiments were performed in triplicate for each concentration. Medium alone was used as a blank, and cells treated with DMSO were used as controls for every plate. At end of the incubation, 20 μl combined MTS/PMS solution were added into each well and incubated at 37° C. for an additional 1-2 hours. The amount of soluble formazan was measured with a SAFIRE™ microplate reader (Tecan A G, Switzerland). An absorbance for the control cells ranging from 0.8 to 1.3 was considered to meet the standard of cytotoxicity assays for the analysis. The final cell viability for each well was calculated using the following formula: relative survival cell number=absorbance (drug-treated cells−blank)/absorbance (control cells−[…]). During the entire process from cell culture to cytotoxicity analysis, all cell lines were grown exponentially without antibiotics and were handled by one person under the same condition to minimize the variation introduced by handling. The final dose-response curve for each cell line was plotted based on either 4 parameter logistic with top=100%, or 4 parameter logistic with bottom=0% using an R package. GI50 values at each concentration for each cell lines were then calculated based on the dose response curve. Twelve randomly selected lymphoblastoid cell lines were used to repeat the cytotoxicity studies three months later. In addition, to functionally characterize the effect of the candidate genes on the sensitivity to both drugs, drug cytotoxicity with human tumor cell lines also was analyzed using an MTS assay. The experimental procedures were similar to those for the lymphoblastoid cell lines, except that the cells were incubated overnight in 96 well plates before addition of the two drugs.
(§5) Transient transfection and RNA interference: The human breast cancer cell line, MDA-MB-231, and the human pancreatic cancer cell line, SU86, were used for siRNA studies. The LIPOFECTAMINE™ RNAiMAX reagent (Invitrogen, Carlsbad, Calif.) was used for transient transfection of siRNA according to the manufacturer's instructions. Briefly, cells were growing adhesively until they reached 30-50% confluence in a 6-well plate, and then transfected. siRNAs including NT5C3-siRNA, FKBP5-siRNA and Allstars negative control siRNA (Qiagen) at a final concentration of 50 nM, as well as 5 μL, of LIPOFECTAMINE™ RNAiMAX reagent, were preincubated with 250 μL, reduced serum medium (Invitrogen) for 5 minutes at room temperature before being mixed together. After incubation of the siRNA and LIPOFECTAMINE™ reagent mixtures for 20 minutes at room temperature, this mixture was added to cells in 2 ml culture medium supplied with 10% FBS. Cells were harvested for further assays 48 hours post-transfection.
(§6) Transient transfections were first performed with NT5C3 and FKBP5 specific siRNAs. Western blots verified that both genes were knocked down in both tumor cell lines (FIG. 21A and FIG. 22A). […] That relationship also was confirmed by knockdown experiments performed with FKBP5 specific siRNA.

[2] = system: MDA-MB-231 breast cancer cells; assay: as above; assay type: cell-based, human; conditions: for Change of drug sensitivity after FKBP5 siRNA: FKBP5 specific siRNA vs negative siRNA
Procedure: as §4, §5, §6

[3] = system: human lymphoblastoid cell lines; assay: Gemcitabine and AraC cytotoxicity assay (MTS/PMS), Human Variation Panel; assay type: cell-based; conditions: 197 cell lines; mean±SD; 72 hours; read-out: Average unadjusted LC50
Procedure: (§7) Specifically, once cells grew at an exponential phase, 90 μl of cell suspension were placed into a 96 well flat plate (Corning, Corning, N.Y.) at a density of 5×10^4 cells/well. […] Experiments were performed in triplicate for each concentration. Medium alone was used as a blank, and cells treated with DMSO were used as controls for every plate. At end of the incubation, 20 μl combined MTS/PMS solution were added into each well and incubated at 37° C. for an additional 1-2 hours. The amount of soluble formazan was measured with a SAFIRE™ microplate reader (Tecan A G, Switzerland). An absorbance for the control cells ranging from 0.8 to 1.3 was considered to meet the standard of cytotoxicity assays for the analysis. The final cell viability for each well was calculated using the following formula: relative survival cell number=absorbance (drug-treated cells−blank)/absorbance (control cells−[…]). […] GI50 values at each concentration for each cell lines were then calculated based on the dose response curve. […] In addition, to functionally characterize the effect of the candidate genes on the sensitivity to both drugs, drug cytotoxicity with human tumor cell lines also was analyzed using an MTS assay. […]

[4] = system: lymphoblastoid cell lines; assay: Intracellular active metabolites by HPLC after drug treatment; conditions: after AraC treatment
Procedure: To measure the intracellular metabolite levels in drug-treated lymphoblastoid cell lines, an HPLC assay was developed to measure AraCDP, AraCTP as well as dFdCDP and dFdCTP. […] Five×10^6 cells were centrifuged and washed with ice-cold phosphate buffered saline (PBS), followed by resuspension in 135 μL, of ice-cold PBS with 15 μL, of 100 μM AraCTP or dFdCTP as internal standards. Subsequently 50 μL, of 40% ice cold TCA was added, and the mixture was vortexed for 1 minute and chilled on ice for 20 minutes, followed by centrifugation. The supernatant was neutralized by adding 400 μL, of freshly prepared trioctylamine:trichlorotrifluoroethane (1:4). After centrifugation at 4° C. for 1 minute, the aqueous phase (nucleotide extract) was removed and stored at −20° C. for HPLC analysis.
Nucleotide analogue metabolites were separated from native nucleotides on a ZirChrom SAX HPLC column in HPLC assay. […] Mobile phase A was 10 mM K2HPO4 and 40 mM NaCl, pH 6.8. Mobile phase B was 100 mM K2HPO4 and 400 mM K2HPO4, pH 6.8. Detection was performed by monitoring the absorbance with a photo-diode array between 240-290 nm to obtain a typical chromatogram. The amount of intracellular metabolites in 5×10^6 cells was quantified with a standard curve prepared by spiking the 5×10^6 untreated control cells with pure compound, immediately followed by nucleotide extraction.

[5] = system: patients with pancreatic cancer; conditions: patients treated with gemcitabine; cited from earlier work
thymidine kinase 2 (TK2) = target: T1, thymidine kinase 2 (TK2) (Homo sapiens, UniProt O00142); conditions: as well as deoxycytidine; cited from earlier work
T1 sequence (O00142 34-265): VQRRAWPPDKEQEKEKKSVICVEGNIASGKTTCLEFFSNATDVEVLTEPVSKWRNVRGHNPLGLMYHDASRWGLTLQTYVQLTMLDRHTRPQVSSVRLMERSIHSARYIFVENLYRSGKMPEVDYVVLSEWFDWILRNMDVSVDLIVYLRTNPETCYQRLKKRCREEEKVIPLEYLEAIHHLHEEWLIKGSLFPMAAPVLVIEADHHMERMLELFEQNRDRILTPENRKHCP

[6] = system: lymphoblastoid cell lines; assay: Preliminary gemcitabine cytotoxicity, MTS assay, initial 71 cell lines; assay type: cell-based; conditions: Homo sapiens, read-out: IC50 values (the drug concentration that inhibited cell growth 50%), variation across initial 71 lymphoblastoid cell lines, 48 hours
Procedure: Gemcitabine cytotoxicity: Gemcitabine cytotoxicity after drug exposure is a major phenotype that is determined in the course of phenotype-genotype association studies for the lymphoblastoid cell lines. Increasing concentrations of gemcitabine are used to perform the cytotoxicity studies in a 96-well plate format. Approximately 5×10^5 lymphoblastoid cells are incubated overnight in each well before addition of the drug. The cells are then incubated for 48 hours with gemcitabine at 8 different concentrations, ranging from 10^−4 μM to 100 μM. Cytotoxicity is determined using the MTS assay. All studies are performed in triplicate, and both IC50 and LC50 values are calculated. To avoid confounding factors, cytotoxicity studies are performed with equal numbers of cell lines from each ethnic group in every experiment.
IC50 data have been obtained for 71 of 203 cell lines (the 71 cell lines for which Perlegen genome-wide SNP data is available). Significant variation in IC50 values was observed just for the initial 71 cell lines studied (FIG. 14). Each square in FIG. 14 represents an individual sample, and the colors represent different ethnic groups.

in vitro = assay type: cell-based; conditions: human
Procedure: as §7

[7] = average of 7 resistant cell samples
[8] = average of 7 sensitive cell samples
[9] = NT5C3 specific siRNA vs negative siRNA

Compound | caspase-3/7 activity in FKBP5 siRNA-treated cells (MDA-MB-231 cells) | caspase-3/7 activity in FKBP5 siRNA-treated cells (SU86 cells) | Change of drug sensitivity after FKBP5 siRNA [1] | Change of drug sensitivity after FKBP5 siRNA [2] | CC50 [3] | AraCDP, Resistant, Average ± SEM [4, 7] | AraCTP, Resistant, Average ± SEM [4, 7] | AraCDP, Sensitive, Average ± SEM [4, 8] | AraCTP, Sensitive, Average ± SEM [4, 8] | patients with life expectancies of over one year [5] | Change of drug sensitivity (dose response curve) after NT5C3 siRNA [1, 9] | Change of drug sensitivity (dose response curve) after NT5C3 siRNA [2, 9] | phosphorylation by TK2 relative to deoxycytidine (thymidine kinase 2 (TK2)) | IC50 [6] | CC50 at 72 h (in vitro)
Nc1ccn([C@@H]2O[C@H](CO)[C@@H](O)[C@@H]2O)c(=O)n1 [AraC, cytosine arabinoside] | significantly decreased | significantly decreased | desensitized | desensitized | 8400 ± 14300 nM | 0.65 ± 0.13 | 2.62 ± 0.40 | 1.02 ± 0.18 | 4.43 ± 0.56 |  |  |  |  |  | 
Nc1ccn([C@@H]2O[C@H](CO)[C@@H](O)C2(F)F)c(=O)n1 [gemcitabine, 2′,2′-difluorodeoxycytidine] | significantly decreased | significantly decreased | desensitized | desensitized |  |  |  |  |  | approximately 20% | increased sensitivity | increased sensitivity | 5-10% | 4 to 80 nM | 25.3 ± 30.7 nM
